“Also recorded” adds a separate entry of the source. Read-outs that look alike come from different tables or passages of the source.
Key:
[1] = in vitro; settings: both, human, microsomes, pH 7.4
[2] = target: T1, sst4 (h) (Homo sapiens, UniProt P31391); experiment: CEREP panel; type: binding; settings: for % inhibition sst4 (h): 10 µM
T1 construct: CEREP (contract assay)

[3] = system: sigma (non-selective) (h); type: binding, human; settings: 10 µM
[4] = target: T2, D1 (h) (Homo sapiens, UniProt P21728); experiment: CEREP panel; type: binding; settings: for % inhibition D1 (h): 10 µM
T2 construct: CEREP (contract assay)

[5] = target: T3, FP (h) (Homo sapiens, UniProt P43088); experiment: CEREP panel; type: binding; settings: for % inhibition FP (h): 10 µM
T3 construct: CEREP (contract assay)

[6] = target: T4, beta 2 (h) (Homo sapiens, UniProt P07550); experiment: CEREP panel; type: binding; settings: for % inhibition beta 2 (h): 10 µM
T4 construct: CEREP

[7] = target: mCB2R (Mus musculus, UniProt P47936); experiment: [35S]GTPγS assay; type: biochemical; set-up: from tissue; host or cells: spleen of male C57BL/6J mice; settings: for Emax: read-out: Emax ± SEM GTPγS mCB2R; for Emax ± SEM GTPγS mCB2R: normalized to 10 µM CP55940
[8] = target: T5, CB1 (h) (Homo sapiens, UniProt P21554); experiment: biochemical; type: binding; settings: for % inhibition CB1 (h): 10 µM
T5 construct: CEREP (contract assay)

[9] = target: T6, NTS1 (NT1) (h) (Homo sapiens, UniProt P30989); experiment: CEREP panel; type: binding; settings: for % inhibition NTS1 (NT1) (h): 10 µM
T6 construct: CEREP (contract assay)

[10] = target: T7, PAC1 (PACAP) (h) (Homo sapiens, UniProt P41586); experiment: CEREP panel; type: binding; settings: for % inhibition PAC1 (PACAP) (h): 10 µM
T7 construct: CEREP (contract assay)
T7 sequence (P41586 21-468): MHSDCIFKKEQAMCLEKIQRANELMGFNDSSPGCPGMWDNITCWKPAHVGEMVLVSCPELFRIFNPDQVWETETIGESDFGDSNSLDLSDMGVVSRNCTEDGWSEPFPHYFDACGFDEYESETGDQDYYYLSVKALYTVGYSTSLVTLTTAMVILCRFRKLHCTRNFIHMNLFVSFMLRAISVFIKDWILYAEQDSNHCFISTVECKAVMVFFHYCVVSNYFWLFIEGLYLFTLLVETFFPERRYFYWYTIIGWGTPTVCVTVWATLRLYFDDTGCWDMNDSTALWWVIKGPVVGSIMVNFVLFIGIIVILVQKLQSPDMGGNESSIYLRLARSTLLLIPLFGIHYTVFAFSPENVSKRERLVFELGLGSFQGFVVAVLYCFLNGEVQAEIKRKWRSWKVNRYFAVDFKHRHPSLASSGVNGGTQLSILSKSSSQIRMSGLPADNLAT

[11] = target: T8, NK2 (h) (Homo sapiens, UniProt P21452); experiment: CEREP panel; type: binding; settings: for % inhibition NK2 (h): 10 µM
T8 construct: CEREP (contract assay)
T8 sequence (P21452 1-398): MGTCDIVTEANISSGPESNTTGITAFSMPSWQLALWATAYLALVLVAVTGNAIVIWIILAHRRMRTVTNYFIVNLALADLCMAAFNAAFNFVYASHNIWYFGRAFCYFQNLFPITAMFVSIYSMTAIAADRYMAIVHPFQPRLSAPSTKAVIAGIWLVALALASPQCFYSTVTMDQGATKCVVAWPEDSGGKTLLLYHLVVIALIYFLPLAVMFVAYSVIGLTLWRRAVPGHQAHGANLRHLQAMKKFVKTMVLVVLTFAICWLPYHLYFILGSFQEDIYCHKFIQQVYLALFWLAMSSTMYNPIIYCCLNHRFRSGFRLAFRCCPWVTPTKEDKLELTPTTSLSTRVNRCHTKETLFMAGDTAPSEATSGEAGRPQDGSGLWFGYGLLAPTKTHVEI

[12] = target: T9, A2A (h) (Homo sapiens, UniProt P29274); experiment: CEREP panel; type: binding; settings: for % inhibition A2A (h): 10 µM
T9 construct: CEREP

[13] = target: T10, MT1 (ML1A) (h) (Homo sapiens, UniProt P48039); experiment: CEREP panel; type: binding; settings: for inhibition at 10 µM: read-out: % inhibition MT1 (ML1A) (h)
T10 construct: CEREP (contract assay)

[14] = target: T11, NK3 (h) (Homo sapiens, UniProt P29371); experiment: CEREP panel; type: binding; settings: for % inhibition NK3 (h): 10 µM
T11 construct: CEREP (contract assay)
T11 sequence (P29371 1-465): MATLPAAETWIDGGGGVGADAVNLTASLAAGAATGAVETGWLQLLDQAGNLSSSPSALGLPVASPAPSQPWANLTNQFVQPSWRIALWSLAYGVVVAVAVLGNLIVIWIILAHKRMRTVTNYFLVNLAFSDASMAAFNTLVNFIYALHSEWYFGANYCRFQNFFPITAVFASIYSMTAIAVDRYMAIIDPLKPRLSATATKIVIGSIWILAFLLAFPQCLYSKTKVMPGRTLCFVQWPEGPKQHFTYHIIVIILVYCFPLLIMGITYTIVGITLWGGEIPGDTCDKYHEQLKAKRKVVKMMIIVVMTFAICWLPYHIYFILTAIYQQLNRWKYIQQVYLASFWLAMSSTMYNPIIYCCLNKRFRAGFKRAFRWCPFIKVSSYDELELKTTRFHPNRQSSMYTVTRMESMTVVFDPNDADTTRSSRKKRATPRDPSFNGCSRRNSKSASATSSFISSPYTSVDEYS

[15] = system: PDGF; experiment: CEREP panel; type: binding; settings: 10 µM
[16] = target: T12, NK1 (h) (Homo sapiens, UniProt P25103); experiment: CEREP panel; type: binding; settings: for % inhibition NK1 (h): 10 µM
T12 construct: CEREP (contract assay)

[17] = target: T13, AT2 (h) (Homo sapiens, UniProt P50052); experiment: CEREP panel; type: binding; settings: for % inhibition AT2 (h): 10 µM
T13 construct: CEREP
T13 sequence (P50052 1-363): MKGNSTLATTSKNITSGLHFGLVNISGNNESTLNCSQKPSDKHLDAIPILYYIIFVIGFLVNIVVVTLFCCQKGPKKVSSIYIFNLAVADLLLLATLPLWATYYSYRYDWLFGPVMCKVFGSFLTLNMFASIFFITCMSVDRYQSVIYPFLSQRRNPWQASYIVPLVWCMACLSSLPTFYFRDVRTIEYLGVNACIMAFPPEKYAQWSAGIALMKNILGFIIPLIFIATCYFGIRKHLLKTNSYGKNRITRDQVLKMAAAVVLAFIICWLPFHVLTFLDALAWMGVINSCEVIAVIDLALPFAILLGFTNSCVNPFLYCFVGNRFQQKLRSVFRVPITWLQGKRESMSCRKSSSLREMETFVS

[18] = system: C57BL6/J mice; experiment: Triad assay: catalepsy; type: in vivo, mouse; settings: for catalepsy, cannabimimetic effect: 1-100 mg kg^−1 i.p., cumulative, mice

T12 sequence (P25103 whole entry): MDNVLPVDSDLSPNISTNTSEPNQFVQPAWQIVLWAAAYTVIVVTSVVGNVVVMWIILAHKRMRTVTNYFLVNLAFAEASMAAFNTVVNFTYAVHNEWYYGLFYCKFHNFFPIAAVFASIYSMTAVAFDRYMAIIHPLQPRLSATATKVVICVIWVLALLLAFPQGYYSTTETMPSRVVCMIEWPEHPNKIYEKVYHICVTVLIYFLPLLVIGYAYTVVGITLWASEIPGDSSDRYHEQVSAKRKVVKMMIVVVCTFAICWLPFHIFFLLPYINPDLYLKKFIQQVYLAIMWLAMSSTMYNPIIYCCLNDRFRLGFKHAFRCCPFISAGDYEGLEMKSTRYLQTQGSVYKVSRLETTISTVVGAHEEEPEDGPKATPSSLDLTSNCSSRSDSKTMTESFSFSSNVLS
T5 sequence (P21554 whole entry): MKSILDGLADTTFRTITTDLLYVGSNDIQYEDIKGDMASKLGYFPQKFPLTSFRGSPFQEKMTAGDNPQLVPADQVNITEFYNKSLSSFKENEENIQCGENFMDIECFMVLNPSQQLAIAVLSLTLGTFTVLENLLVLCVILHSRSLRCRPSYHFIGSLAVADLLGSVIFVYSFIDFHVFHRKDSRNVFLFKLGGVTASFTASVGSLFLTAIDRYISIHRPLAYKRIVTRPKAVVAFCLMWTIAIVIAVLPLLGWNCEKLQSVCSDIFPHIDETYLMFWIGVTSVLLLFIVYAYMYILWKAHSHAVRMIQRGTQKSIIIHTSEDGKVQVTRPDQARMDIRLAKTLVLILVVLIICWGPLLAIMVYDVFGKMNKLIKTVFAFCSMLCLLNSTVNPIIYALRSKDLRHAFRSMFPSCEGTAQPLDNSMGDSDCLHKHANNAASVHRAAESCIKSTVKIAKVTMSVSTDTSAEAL
mCB2R, sequence (P47936 whole entry): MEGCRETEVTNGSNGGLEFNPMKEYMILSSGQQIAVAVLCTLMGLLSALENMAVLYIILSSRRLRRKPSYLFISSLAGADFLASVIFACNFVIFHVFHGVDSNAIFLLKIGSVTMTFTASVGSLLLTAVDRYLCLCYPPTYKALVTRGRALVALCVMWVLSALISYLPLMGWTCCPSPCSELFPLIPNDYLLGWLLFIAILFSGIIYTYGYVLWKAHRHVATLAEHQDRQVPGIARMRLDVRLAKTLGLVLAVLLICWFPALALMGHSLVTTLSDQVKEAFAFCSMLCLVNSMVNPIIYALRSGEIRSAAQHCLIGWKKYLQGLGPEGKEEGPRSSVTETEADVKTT
T2 sequence (P21728 whole entry): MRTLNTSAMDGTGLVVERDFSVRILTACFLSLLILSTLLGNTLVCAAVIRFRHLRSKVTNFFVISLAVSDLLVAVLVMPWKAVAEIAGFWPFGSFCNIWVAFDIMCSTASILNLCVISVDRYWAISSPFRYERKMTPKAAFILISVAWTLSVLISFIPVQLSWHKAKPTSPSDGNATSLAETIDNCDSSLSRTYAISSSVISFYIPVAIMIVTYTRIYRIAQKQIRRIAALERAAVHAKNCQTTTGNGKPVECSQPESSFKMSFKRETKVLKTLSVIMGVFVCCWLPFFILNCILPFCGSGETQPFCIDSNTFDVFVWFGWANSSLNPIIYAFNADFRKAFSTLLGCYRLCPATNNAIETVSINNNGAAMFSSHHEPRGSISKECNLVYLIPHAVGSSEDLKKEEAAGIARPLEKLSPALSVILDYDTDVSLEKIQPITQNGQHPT
T6 sequence (P30989 whole entry): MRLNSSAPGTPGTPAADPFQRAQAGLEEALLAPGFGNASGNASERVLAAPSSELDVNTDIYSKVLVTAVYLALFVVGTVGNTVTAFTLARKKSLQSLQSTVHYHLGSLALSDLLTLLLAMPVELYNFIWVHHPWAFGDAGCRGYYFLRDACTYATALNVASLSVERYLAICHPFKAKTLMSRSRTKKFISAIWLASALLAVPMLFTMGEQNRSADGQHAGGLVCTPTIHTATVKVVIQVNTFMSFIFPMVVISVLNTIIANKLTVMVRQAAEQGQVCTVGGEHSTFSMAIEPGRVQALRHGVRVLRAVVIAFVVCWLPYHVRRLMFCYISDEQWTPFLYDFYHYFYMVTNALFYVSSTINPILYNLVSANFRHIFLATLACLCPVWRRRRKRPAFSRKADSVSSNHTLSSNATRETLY
T10 sequence (P48039 whole entry): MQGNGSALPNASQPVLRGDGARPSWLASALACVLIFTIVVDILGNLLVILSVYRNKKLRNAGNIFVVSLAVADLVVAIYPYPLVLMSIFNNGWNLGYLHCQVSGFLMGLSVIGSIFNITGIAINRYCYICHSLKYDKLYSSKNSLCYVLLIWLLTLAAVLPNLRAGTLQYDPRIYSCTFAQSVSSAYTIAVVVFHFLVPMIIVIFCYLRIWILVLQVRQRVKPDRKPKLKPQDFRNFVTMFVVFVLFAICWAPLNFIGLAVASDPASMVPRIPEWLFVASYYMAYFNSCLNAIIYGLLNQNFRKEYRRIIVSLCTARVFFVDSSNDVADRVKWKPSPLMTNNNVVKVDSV
T4 sequence (P07550 whole entry): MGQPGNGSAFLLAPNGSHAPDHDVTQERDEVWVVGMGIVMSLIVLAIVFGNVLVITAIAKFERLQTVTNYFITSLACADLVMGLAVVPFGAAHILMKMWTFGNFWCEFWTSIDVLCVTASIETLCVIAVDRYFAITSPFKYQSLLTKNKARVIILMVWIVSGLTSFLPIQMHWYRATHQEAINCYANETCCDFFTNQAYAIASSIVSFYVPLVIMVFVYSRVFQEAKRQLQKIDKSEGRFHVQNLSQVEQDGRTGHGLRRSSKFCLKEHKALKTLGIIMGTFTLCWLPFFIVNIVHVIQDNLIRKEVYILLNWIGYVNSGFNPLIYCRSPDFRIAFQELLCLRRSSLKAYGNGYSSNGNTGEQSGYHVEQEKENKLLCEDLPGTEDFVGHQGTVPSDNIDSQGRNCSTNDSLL
T1 sequence (P31391 whole entry): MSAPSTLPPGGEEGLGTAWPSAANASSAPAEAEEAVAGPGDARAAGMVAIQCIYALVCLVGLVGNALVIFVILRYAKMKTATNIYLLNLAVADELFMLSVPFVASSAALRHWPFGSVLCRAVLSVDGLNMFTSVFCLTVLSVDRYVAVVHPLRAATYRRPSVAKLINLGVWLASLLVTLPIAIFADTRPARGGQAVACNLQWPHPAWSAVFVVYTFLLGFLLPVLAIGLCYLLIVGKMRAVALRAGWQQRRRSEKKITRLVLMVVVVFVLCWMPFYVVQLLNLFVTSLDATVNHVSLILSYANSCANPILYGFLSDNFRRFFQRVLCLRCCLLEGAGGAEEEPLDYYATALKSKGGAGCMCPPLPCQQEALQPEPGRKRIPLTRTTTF
T9 sequence (P29274 whole entry): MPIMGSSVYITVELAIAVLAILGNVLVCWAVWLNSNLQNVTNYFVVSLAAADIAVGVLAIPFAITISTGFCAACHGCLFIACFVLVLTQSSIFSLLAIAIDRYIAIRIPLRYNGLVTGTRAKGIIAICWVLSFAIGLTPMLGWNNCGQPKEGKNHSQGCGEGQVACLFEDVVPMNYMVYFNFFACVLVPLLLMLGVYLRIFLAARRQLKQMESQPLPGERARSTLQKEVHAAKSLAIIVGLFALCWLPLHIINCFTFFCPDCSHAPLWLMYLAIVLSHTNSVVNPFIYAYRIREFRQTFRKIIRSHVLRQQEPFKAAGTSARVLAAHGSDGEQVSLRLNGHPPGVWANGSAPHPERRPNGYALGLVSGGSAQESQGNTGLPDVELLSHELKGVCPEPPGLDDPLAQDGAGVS
T3 sequence (P43088 whole entry): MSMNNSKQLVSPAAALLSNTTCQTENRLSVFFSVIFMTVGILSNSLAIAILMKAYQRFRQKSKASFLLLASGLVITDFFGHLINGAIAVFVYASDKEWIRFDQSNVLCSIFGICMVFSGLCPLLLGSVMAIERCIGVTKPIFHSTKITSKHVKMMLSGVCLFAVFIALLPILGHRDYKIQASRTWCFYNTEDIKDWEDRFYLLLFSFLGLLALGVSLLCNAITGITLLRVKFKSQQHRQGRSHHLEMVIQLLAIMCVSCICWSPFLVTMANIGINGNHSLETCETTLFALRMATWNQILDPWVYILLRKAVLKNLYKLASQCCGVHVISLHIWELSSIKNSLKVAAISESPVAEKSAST

CCCCC/C=C\C/C=C\C/C=C\C/C=C\CCCC(=O)OC(CO)CO [2-AG, 2-arachidonoyl glycerol]
microsomal CLint [1]: 13 µL/min/mg

CN1CCCC[C@H]1Cn1cc(C(=O)c2cc([N+](=O)[O-])ccc2I)c2ccccc21 [(S)-AM1241]
Plasma protein binding mouse: 1.2 %free | % inhibition sst4 (h) [2]: 63% | % inhibition sigma (non-selective) (h) [3]: 101%

Cc1c(C(=O)NN2CCCCC2)nn(-c2ccc(Cl)cc2Cl)c1-c1ccc(I)cc1 [AM251]
% inhibition sst4 (h) [2]: 51% | % inhibition D1 (h) [4]: 58% | % inhibition FP (h) [5]: 94%

COc1ccc(C(=O)c2c(C)n(CCN3CCOCC3)c3cc(I)ccc23)cc1 [AM630]
Plasma protein binding mouse: 0.4 %free | % inhibition beta 2 (h) [6]: 11% | % inhibition FP (h) [5]: 66%

CCCCC/C=C\C/C=C\C/C=C\C/C=C\CCCC(=O)NCCO [Anandamide, N-arachidonoylethanolamine]
microsomal CLint [1]: 47 µL/min/mg

CCCCCCC(C)(C)c1ccc([C@@H]2C[C@H](O)CC[C@H]2CCCO)c(O)c1 [CP55940]
inhibition at 10 µM [2]: 63% | inhibition at 10 µM [4]: 77% | EC50 [7]: 16.2 nM | Emax [7]: 102 ± 1% | microsomal CLint [1]: 80 µL/min/mg | inhibition at 10 µM [5]: 100%

Cc1ccc2c(c1)Cc1c(C(=O)NN3CCCCC3)nn(-c3ccc(Cl)cc3Cl)c1-2 [Gp-1a]
% inhibition sigma (non-selective) (h) [3]: 51% | % inhibition D1 (h) [4]: 63% | % inhibition FP (h) [5]: 88%

CCCCCCC(C)(C)c1cc(OC)c([C@@H]2C=C(CO)[C@@H]3C[C@H]2C3(C)C)c(OC)c1 [HU308]
inhibition at 10 µM ([8]; read-out: % inhibition CB1 (h)): 18% | inhibition at 10 µM ([9]; read-out: % inhibition NTS1 (NT1) (h)): -23% | inhibition at 10 µM ([10]; read-out: % inhibition PAC1 (PACAP) (h)): -3% | inhibition at 10 µM ([11]; read-out: % inhibition NK2 (h)): 68% | inhibition at 10 µM ([12]; read-out: % inhibition A2A (h)): 25% | inhibition at 10 µM [13]: -5% | inhibition at 10 µM ([14]; read-out: % inhibition NK3 (h)): 13% | % inhibition PDGF [15]: -28% | inhibition at 10 µM ([16]; read-out: % inhibition NK1 (h)): 29% | EC50 [7]: 148 nM | Emax [7]: 96 ± 3% | inhibition at 10 µM ([17]; read-out: % inhibition AT2 (h)): 42% | inhibition at 10 µM ([6]; read-out: % inhibition beta 2 (h)): -30% | catalepsy, cannabimimetic effect [18]: did not produce detectable; also recorded: lacked appreciable pharmacological effects

CCCCCCC(C)(C)c1cc(OC)c(C2=C[C@H]3CC[C@]2(CO)C3(C)C)c(OC)c1 [HU910]
% inhibition CB1 (h) [8]: 71% | Plasma protein binding mouse: 4.1 %free | % inhibition NTS1 (NT1) (h) [9]: -19% | % inhibition PAC1 (PACAP) (h) [10]: 0% | % inhibition NK2 (h) [11]: 31% | % inhibition A2A (h) [12]: 50% | % inhibition MT1 (ML1A) (h) ([13]; 10 µM): 52% | % inhibition NK3 (h) [14]: 24% | % inhibition PDGF [15]: 10% | % inhibition NK1 (h) [16]: 42% | pEC50 ± SEM GTPγS mCB2R [7]: 7.27 ± 0.08 | Emax ± SEM GTPγS mCB2R [7]: 78 ± 4% | % inhibition AT2 (h) [17]: 13% | % inhibition beta 2 (h) [6]: -5% | catalepsy, cannabimimetic effect [18]: did not produce detectable; also recorded: lacked appreciable pharmacological effects | antagonism of HU210-induced catalepsy ([18]; pretreatment (SR141716A 3 mg kg^−1, HU910 30 mg kg^−1) before HU210 1.7 mg kg^−1): did not significantly reduce

CCCC(C)(C)c1ccc2c(c1)OC(C)(C)[C@@H]1CC=C(C)C[C@@H]21 [JWH133]
% inhibition CB1 (h) [8]: 6 | % inhibition sigma (non-selective) (h) [3]: 2% | % inhibition NTS1 (NT1) (h) [9]: 0% | % inhibition PAC1 (PACAP) (h) [10]: 12% | % inhibition NK2 (h) [11]: 36% | % inhibition A2A (h) [12]: 4% | % inhibition MT1 (ML1A) (h) ([13]; 10 µM): -4% | % inhibition NK3 (h) [14]: -1% | % inhibition PDGF [15]: -12% | % inhibition NK1 (h) [16]: 13% | pEC50 ± SEM GTPγS mCB2R [7]: 7.03 ± 0.14 | Emax ± SEM GTPγS mCB2R [7]: 103 ± 7% | % inhibition AT2 (h) [17]: 0% | % inhibition beta 2 (h) [6]: -15% | catalepsy, cannabimimetic effect [18]: did not produce detectable; also recorded: lacked appreciable pharmacological effects

Cc1c(C(=O)NN2CCCCC2)nn(-c2ccc(Cl)cc2Cl)c1-c1ccc(Cl)cc1 [SR141716A]
inhibition at 10 µM ([13]; 10 µM): 62% | microsomal CLint [1]: 20 µL/min/mg | antagonism of HU210-induced catalepsy ([18]; mouse, in vivo): attenuated; also recorded: significantly antagonized

Cc1c(C(=O)c2cccc3ccccc23)c2cccc3c2n1[C@H](CN1CCOCC1)CO3 [WIN55212-2]
Plasma protein binding mouse: 1.0 %free | % inhibition sst4 (h) [2]: 64% | % inhibition FP (h) [5]: 81%

Source: paper PMC5216056 (Nature Communications, 2017)
